From patent publication US6197746A, “Method of using secretin for treating autism” (priority 1999, dated 2001)
Entries after “also recorded” stand apart in the source; their conditions may differ.

Tests used:
[1] = tested on: pancreas; assay: Pancreatic juice release after intravenous secretin during upper gastrointestinal endoscopy (Example 1); format: in vivo, human; conditions: immediately after 2 CU/kg i.v. over one minute; usual rate 1-2 ml/min
Description: (§1) When the patient was […], the secretin was administered by way of an infusion as part of an upper gastrointestinal endoscopy. The secretin was used in this diagnostic procedure at the request of the patient's parents, one of which is an inventor of the present invention. The secretin used in this procedure is known as Secretin-Ferring available from Ferring Laboratories, Inc., Suffern, N.Y. (See Appendix A). The secretin was dissolved in a […] solution of sodium chloride and administered in a dosage of 2 clinical units (CU) per kilogram (kg) body weight by intravenous injection over one minute. (I.E. 30 IU IV for approximately 15 kilograms of body weight.)
(§2) The diagnostic tests performed on the patient during this procedure also indicated gastric inflammation. […] The following Table I summarizes the improvements observed in the patient within 3 weeks after the infusion of secretin.

[2] = tested on: symptoms of autism; assay: Daily transdermal secretin with DMSO in a child with symptoms of autism (Example 2); format: in vivo, human
Description: At the time of this treatment, the patient was […]. Secretin was administered transdermally using pharmaceutical grade dimethyl sulfoxide (DMSO) (generally 99.9% pure) available from Clinic Service Co., Box 2512, Hemet Calif. 92543. The secretin (Secretin-Ferring) was administered daily in a dosage of about 75 CU over a five day period (i.e., about 15 CU daily) For each treatment, about 4 drops of DMSO were placed onto the skin of the patient, about 15 CU of the crystalline secretin was placed onto the DMSO, and the composition was rubbed into the skin.

[3] = tested on: symptoms of autism; assay: Symptoms and behaviour of a child with symptoms of autism after secretin infusion (Example 1, Table I); format: in vivo, human
Description: The present invention will be better understood from the following examples which are given by way of illustration and not by way of limitation. The patient, the same in both examples, is a child with symptoms of autism.
as §1, §2

[4] = tested on: abnormal opioid peptides; conditions: after the secretin infusion; autistic children that responded to casein free and gluten free diet; cited from earlier work
[5] = tested on: brain perfusion; assay: SPECT scan of the brain after secretin infusion (Example 1); format: in vivo, human
Description: Further, the patient's secretin cells prior to receiving treatment, measured at a level of 9, are far below the normal limit in the range of 20-70.
(§3) Biomedical changes were also measured in the patient.

[6] = tested on: serotonin levels; rubella titers; assay: Blood tests after secretin infusion (Example 1); format: in vivo, human
Description: as §3

[7] = within weeks after the treatment

## secretin
[1]
  amount of pancreatic juice being released: approximately 10 ml/min
[2]; transdermal daily dose stopped
  autistic behavioral symptoms when the daily dose is stopped: autistic behavioral symptoms return
[2]; transdermal daily, within a period of about 6 months
  language: progressed to spontaneous and conversational language
[3]; at about 5 weeks after first infusion
  rate of the patient's progress: appeared to decrease
[3]; second about 9 months after first, third about three months after second
  results of second and third infusions: achieved the same results
[3]; within 3 weeks after infusion
  limited diet preferences: No Change
  water consumption: approximately 50 cups per day
[3]; within 3 weeks after infusion, before: abnormal
  bowel movements: Normal bowel movements
[3]; within 3 weeks after infusion, before: approximately 50 cups per day
  excessive water consumption: no change
[3]; within 3 weeks after infusion, before: diapers only
  potty training: Completely potty trained
[3]; within 3 weeks after infusion, before: did not imitate
  imitation of commands: Will imitate almost any multi-step
[3]; within 3 weeks after infusion, before: infrequent (1-2 times/week)
  "spinning" episodes: No spinning episodes
[3]; within 3 weeks after infusion, before: minimal eye contact
  eye contact: 75 % of the time
[3]; within 3 weeks after infusion, before: no apparent connections
  connections made between language and objects: Many connections made between new
[3]; within 3 weeks after infusion, before: no flash cards
  flash cards: 40-50 flash cards
[3]; within 3 weeks after infusion, before: no focus
  focus on requested tasks: Will sit and watch carefully
[3]; within 3 weeks after infusion, before: no interest
  interest in drawing: Wants to draw constantly
[3]; within 3 weeks after infusion, before: no response
  response to request for gestures: Responds to all kinds of things
[3]; within 3 weeks after infusion, before: no sentences
  sentences: Short sentences
[3]; within 3 weeks after infusion, before: two words
  words: 100's of words
[3]; within 3 weeks after infusion, before: up numerous times each night
  sleeping problems: Has slept through almost every night
[3]; within 3 weeks after infusion, before: watch videos
  interaction with videos: gets "involved" interactively
[3]; within days after the administration, no change of diet
  chronic abnormal bowel movements: became normal
[3]; [7]
  eye contact: able to make normal eye contact
  language: language appeared for the first time in two years
  other behavioral and developmental problems: improved remarkably
[4]
  abnormal opioid peptides: disappeared
[5]
  perfusion of the right posterior parietal and right temporal lobes (blood flow in the brain): improved; also recorded: increased
[6]; after the secretin administration in Example 1
  measles, mumps and rubella antibodies: reduction
[6]; after the treatment, dropped from 5.8
  rubella titers: 2.3
[6]; blood, after the treatment
  serotonin levels: rise and increase
